In the NIST ThermoML archive (doi:10.1016/j.jct.2006.10.017):

Columns and labels:
[1] = xn = mol fraction of the nth substance listed; conditions: 101 kPa, Liquid
[2] = refractive index (Na D-line) (dimensionless); xn = mol fraction of the nth substance listed; conditions: 101 kPa, Liquid

CCCCn1cc[n+](C)c1.F[P-](F)(F)(F)(F)F [1-butyl-3-methylimidazolium hexafluorophosphate] + CCO
Conditions	mass density, 293.15 K [kg/m3]	mass density, 298.15 K [kg/m3]	mass density, 303.15 K [kg/m3]	refractive index, 293.15 K	refractive index, 298.15 K	refractive index, 303.15 K	speed of sound, 293.15 K [m/s]	speed of sound, 298.15 K [m/s]	speed of sound, 303.15 K [m/s]
[1], x1 = 0.0009	791.5	787.4	783.1	–	–	–	1163	1144	1126
[1], x1 = 0.0021	794.3	790.1	785.8	–	–	–	1162	1145	1128
[1], x1 = 0.0033	797	792.8	788.5	–	–	–	1164	1146	1128
[1], x1 = 0.0056	802.3	798.1	793.8	–	–	–	1166	1147	1130
[1], x1 = 0.496	1246.7	1242.2	1237.9	–	–	–	1371	1359	1347
[1], x1 = 0.5032	1249.4	1245	1240.7	–	–	–	1373	1361	1349
[1], x1 = 0.5981	1282	1277.6	1273.4	–	–	–	1397	1384	1372
[1], x1 = 0.7045	1311.6	1307.3	1303	–	–	–	1417	1404	1391
[1], x1 = 0.8003	1333.9	1329.6	1325.4	–	–	–	1431	1418	1405
[1], x1 = 0.9002	1354.1	1349.9	1345.7	–	–	–	1443	1430	1418
[1], x1 = 0.9834	1368.8	1364.7	1360.5	–	–	–	1454	1440	1428
[1], x1 = 1	1371.6	1367.3	1363	–	–	–	1455	1443	1431
[2], x1 = 0.0009	–	–	–	1.36162	1.35956	1.35751	–	–	–
[2], x1 = 0.0021	–	–	–	1.36196	1.3599	1.35781	–	–	–
[2], x1 = 0.0033	–	–	–	1.36222	1.36018	1.35812	–	–	–
[2], x1 = 0.0056	–	–	–	1.36281	1.3608	1.35871	–	–	–
[2], x1 = 0.496	–	–	–	1.40171	1.40034	1.3994	–	–	–
[2], x1 = 0.5032	–	–	–	1.40193	1.40055	1.39959	–	–	–
[2], x1 = 0.5981	–	–	–	1.40432	1.40294	1.40176	–	–	–
[2], x1 = 0.7045	–	–	–	1.40639	1.40507	1.40376	–	–	–
[2], x1 = 0.8003	–	–	–	1.4079	1.40656	1.40522	–	–	–
[2], x1 = 0.9002	–	–	–	1.4093	1.40799	1.40666	–	–	–
[2], x1 = 0.9834	–	–	–	1.41052	1.40923	1.40795	–	–	–
[2], x1 = 1	–	–	–	1.41069	1.40937	1.40808	–	–	–
